According to patent US20230014226A1, “NEW COMPOUNDS AND METHODS” (BenevolentAI Bio Limited, priority 2019, published 2023):
Like-named read-outs stand apart in the source and are kept apart here.

What was measured:
hERG ion channel = hERG ion channel (Homo sapiens, UniProt Q12809); assay: hERG QPatch automated patch clamp; assay type: cell-based; conditions: CHO cells stably expressing hERG, QPatch 48, tail current
Description: hERG IC50 data was supplied by Metrion using their standard assay protocol briefly detailed below.
hERG ion channel screening was assayed in CHO cells stably expressing the human ether-á-go-go related gene, using the QPatch 48 automated, chip-based planar patch clamp device. A Gigaohm seal between the cell membrane and treated silicon surface was obtained and specific external and internal buffered solutions applied to cells prior to recording. Following baseline vehicle treatment, compounds were applied in increasing concentrations (8 pt CRC), effects on hERG tail current amplitudes were measured in two-minute recordings.

HUVEC = HUVEC Cell Viability (CV) assay; assay type: cell-based, human; conditions: for IC50: Homo sapiens, alamarBlue
Description: Cells are seeded at 10,000 cells/well in 96-well plates in HUVEC specific cell culture media. Cells are plated and cultured overnight (16-24 h) at 37° C. After the overnight culture, cells are washed and fed with the Assay Medium. Test compounds are applied and incubated with the cells for the designated time period, after which the cell viability is measured by alamarBlue method. […] The final DMSO concentration is 1%.
Fluorescence readings are recorded after the test compound and alamarBlue incubation. The excitation and emission wavelengths are 530 nm and 590 nm, respectively.
The percent of control is calculated by comparing the readings in the presence of the test compound to the vehicle control. Subsequently, the percent inhibition is calculated by subtracting the percent control activity from 100. IC50 values (concentration causing a half-maximal inhibition of the control value) are determined by non-linear regression analysis of the concentration-response curves using the Hill equation.
The reference compound used for this assay is Staurosporine.

[1] = system: SC-hCMs (stem cell cardiomyocytes); assay: Cardiomyocyte assay (CRL), iPSC cardiomyocytes; assay type: cell-based, human; conditions: for effect on sodium spike amplitude vs. control (given as reduction for nilotinib and Example 39): 10 μM after 48 hours; for ΔΔ Na Spike Amp at 10 μM, 48 h (%): corrected by time matched controls
Description: All measurements were performed at physiological temperature in a tissue culture incubator (37° C.; 5% CO2). Test article, positive controls and vehicle were added in a sterile tissue culture hood.
At least 10 h before compound addition SC-hCMs were exposed to the fresh culture medium. Before compound addition a one-minute recording of field potentials and impedance signals (baseline) was obtained. Test articles, vehicle and positive controls were added as a 2× concentration. One-minute recordings were obtained 0.5, 1, 2, 24 and 48 h after test article addition.
At the time of drug application, culture medium was added to an independent 96 well plate that was incubated in a tissue culture incubator for 48 h. This culture medium was used as the blank of the cTnI release assay.
After the 48 h exposure recording, 150 μL of each well was centrifuged to remove debris. The supernatant was collected and frozen for later cTnI content analysis using an ELISA plate according the manufacturer's instructions (Abcam, cat #ab200016).
Data was stored on the Charles River Laboratories computer network for off-line analysis. Data acquisition was performed using RTCA Cardio Software.
Data analysis was performed using RTCA Cardio Software, Microsoft Excel and Matlab scripts. Data were reported as mean±SEM.
The following field potential parameters were quantitated: Sodium Spike amplitude, Sodium Spike Rate, field potential duration (FPD), Bazett corrected field potential duration (FPDcB), and dysrhythmic events if present.
The following impedance parameters were quantitated: Cell Index, peak amplitude, relaxation from peak to 50% amplitude (Rel50) and twitch duration.
The sodium spike is the voltage signal produced by the propagation of the depolarizing wave (positive peak) and the local activation of sodium channels (negative peak). The sodium spike amplitude is the voltage difference (in […]) between the positive and negative peaks of the sodium spike. The Sodium Spike Rate is a measure of the rate of sodium spike generation (spikes/min) produced by the spontaneous beating of stem cell cardiomyocytes.
Abnormal rhythm activity was characterized by the presence of the following proarrhythmic markers:
Triggered activity: Triggered activity (TA) is activity characterized by the presence of voltage oscillations during the repolarization period (Early After Depolarizations, EADs) or after the repolarization is completed (Delayed After Depolarizations, DADs). They are produced by different mechanisms. EADs are due to reactivation of sodium and calcium currents due to prolongation of the action potential. DADs are due to transient releases of calcium from intracellular calcium stores. Both EADs and DADs can trigger action potentials (ectopic beats, EB).
Impedance instability: Impedance instability (II) consist of small oscillations of the impedance signal during the slower relaxation phase of the impedance twitch sometimes associated with small oscillations of the field potential (FPO). […] II informs about the possibility of drug-induced delayed repolarization setting the background where more robust proarrhythmic markers like EADs and DADs occur.
The SEM of the difference was calculated according to the following equation ΔΔSEM=(SEMtreatment2+SEMcontrol2)0.5.
The statistical analysis includes 1) a Student paired t-test to evaluate the changes respect to baseline and, 2) a multi-comparison analysis (Dunnett's test) of A % changes respect to time matched controls. An alpha probability of 0.05 was considered significant.

[2] = system: HUVEC (human umbilical venous endothelial cells); assay: HUVEC Tube Formation assay; assay type: cell-based; conditions: 18 h incubation, read-out: Tube formation GI50
Description: HUVEC (human umbilical venous endothelial cells, 1.5×10^4/well, ATCC CRL-1730) are placed in an earlier prepared 96-well plate. Test substance and/or vehicle is then added to each well in a final concentration of 0.4% DMSO in growth medium under an atmosphere of 5% CO2 at 37° C. After an 18 h incubation period, morphology of the endothelial cell tubes, which resemble a capillary-like network, are evaluated by a confocal high-content imaging system. Disruption (anti-angiogenesis) of total tube length is measured from each photograph and determined relative to the vehicle control group. […] Compounds are screened at 30, 3, 0.3, 0.03 and 0.003 μM (or μg/mL) in triplicate.

[3] = biological target: T1, recombinant human P450 enzyme 1A1 (Homo sapiens, UniProt P04798); assay: Formation of reactive metabolites (glutathione adduct) by CYP1A1 with human liver cytosol; assay type: in vitro ADME; conditions: 50 μM, human liver cytosol + recombinant CYP1A1, NADPH and GSH, 60 min
T1 construct: host or cells: Bacterial membranes (bactosomes), inferred from the named control preparation
T1 sequence (P04798 1-512): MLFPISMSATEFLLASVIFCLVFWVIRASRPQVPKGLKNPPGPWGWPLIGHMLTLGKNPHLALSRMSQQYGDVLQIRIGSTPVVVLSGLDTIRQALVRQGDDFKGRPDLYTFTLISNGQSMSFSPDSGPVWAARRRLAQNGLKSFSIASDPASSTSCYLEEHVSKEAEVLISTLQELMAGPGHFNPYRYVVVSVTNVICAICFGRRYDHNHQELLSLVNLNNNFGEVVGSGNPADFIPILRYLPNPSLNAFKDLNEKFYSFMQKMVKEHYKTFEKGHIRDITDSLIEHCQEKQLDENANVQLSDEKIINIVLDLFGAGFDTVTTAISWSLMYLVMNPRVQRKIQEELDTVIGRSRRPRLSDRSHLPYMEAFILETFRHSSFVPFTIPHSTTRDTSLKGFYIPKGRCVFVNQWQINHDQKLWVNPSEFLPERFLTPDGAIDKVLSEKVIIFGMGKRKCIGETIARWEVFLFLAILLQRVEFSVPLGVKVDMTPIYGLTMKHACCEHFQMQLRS
Description: Investigations into the potential for test compound to form a reactive metabolite were performed using an adapted method detailed by De Lin et al. Briefly, test compound was pre-incubated (n=2; 50 μM substrate concentration) at 37° C. for 5 min with mixed-gender human liver cytosol (1 mg/mL total protein concentration) in 100 mM phosphate buffer (pH 7.4) with 5 mM MgCl2 in the presence of recombinant human P450 enzyme 1A1 (100 nM), in the presence and absence of 5 mM glutathione. At the end of the pre-incubation period, 2 mM NADPH was added to each sample and the mixture incubated at 37° C. for 60 min. Immediately following the addition of NADPH and after the 60 min incubation period, aliquots of each sample were mixed with MeCN (containing internal standard) to terminate the reaction and precipitate the proteins.
Samples were mixed, centrifuged and following appropriate dilution, supernatants were analysed by LC-MS utilising a high-resolution mass spectrometer to perform metabolite identification and characterisation analysis.

[4] = system: HUVEC (human umbilical venous endothelial cells); conditions: HUVEC tube formation reference; read-out: expected GI50 of reference compound; cited from earlier work

Sequence of hERG ion channel (Q12809 whole entry): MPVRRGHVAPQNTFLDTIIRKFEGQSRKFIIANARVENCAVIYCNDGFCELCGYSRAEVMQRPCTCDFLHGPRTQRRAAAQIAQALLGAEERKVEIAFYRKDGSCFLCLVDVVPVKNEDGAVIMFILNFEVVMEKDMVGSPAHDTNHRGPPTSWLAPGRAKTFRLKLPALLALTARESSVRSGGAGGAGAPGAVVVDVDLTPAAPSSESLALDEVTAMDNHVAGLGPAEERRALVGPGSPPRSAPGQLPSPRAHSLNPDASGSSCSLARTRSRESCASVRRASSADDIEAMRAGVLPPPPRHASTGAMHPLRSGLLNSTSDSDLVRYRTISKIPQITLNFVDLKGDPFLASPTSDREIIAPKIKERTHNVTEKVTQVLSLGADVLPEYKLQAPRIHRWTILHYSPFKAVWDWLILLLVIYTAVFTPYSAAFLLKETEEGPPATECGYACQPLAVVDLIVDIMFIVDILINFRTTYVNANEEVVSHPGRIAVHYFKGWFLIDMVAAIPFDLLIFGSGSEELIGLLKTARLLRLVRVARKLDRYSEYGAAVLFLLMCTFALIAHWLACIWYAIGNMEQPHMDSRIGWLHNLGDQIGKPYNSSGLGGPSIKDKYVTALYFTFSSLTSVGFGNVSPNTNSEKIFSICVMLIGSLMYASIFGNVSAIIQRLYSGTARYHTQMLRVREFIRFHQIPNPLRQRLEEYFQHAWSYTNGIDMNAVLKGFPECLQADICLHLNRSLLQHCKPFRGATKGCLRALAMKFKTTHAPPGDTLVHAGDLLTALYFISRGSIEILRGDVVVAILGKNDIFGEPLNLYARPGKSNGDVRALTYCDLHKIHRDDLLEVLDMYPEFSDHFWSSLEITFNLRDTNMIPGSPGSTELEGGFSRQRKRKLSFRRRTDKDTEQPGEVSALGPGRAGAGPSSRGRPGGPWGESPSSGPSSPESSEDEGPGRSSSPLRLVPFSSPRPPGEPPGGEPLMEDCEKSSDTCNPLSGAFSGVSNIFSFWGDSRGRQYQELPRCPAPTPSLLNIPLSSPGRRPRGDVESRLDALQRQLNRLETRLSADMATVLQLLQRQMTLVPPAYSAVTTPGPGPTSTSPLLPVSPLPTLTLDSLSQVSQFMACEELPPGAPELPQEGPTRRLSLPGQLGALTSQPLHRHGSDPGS

SMILES	IC50 (hERG ion channel)	IC50 (HUVEC)	effect on sodium spike amplitude vs. control (given as reduction for nilotinib and Example 39) [1]	Proarrhythmic Markers at 10 μM, 48 h [1]	ΔΔ Na Spike Amp at 10 μM, 48 h (%) [1]	GI50 [2]	formation of direct glutathione adduct [3]	formation of direct glutathione adduct ([3]; listed as ponatinib)	effect on cell viability compared to the compounds of the invention (HUVEC)	cTnI release / secretion ([1]; 10 μM (48 h), relative to vehicle)	GI50 [4]
Cc1ccc(C(=O)Nc2cn3c(n2)COCC3(C)C)cc1C#Cc1cccnc1 [Example 39, N-(5,5-dimethyl-6,8-dihydroimidazo[2,1-c][1,4]oxazin-2-yl)-4-methyl-3-[2-(3-pyridyl)ethynyl]benzamide]	> 10 µM	21 µM	43%	Not Observed	−43.3%	> 30 µM	–	–	–	–	–
Cc1ccc(C(=O)Nc2cc3n(n2)CCCC3(F)F)cc1C#Cc1cccnc1 [Example 97, N-(4,4-difluoro-6,7-dihydro-5H-pyrazolo[1,5-a]pyridin-2-yl)-4-methyl-3-[2-(3-pyridyl)ethynyl]benzamide]	> 10 µM	3.6 µM	2.2%	Not Observed	2.20%	> 10 µM	–	–	–	–	–
Cc1ccc(C(=O)Nc2ccc(CN3CCN(C)CC3)c(C(F)(F)F)c2)cc1C#Cc1cnc2cccnn12 [Ponatinib, reference compound]	–	–	–	–	–	–	forms a glutathione adduct	forms a significant direct glutathione adduct	~10 fold	increased troponin (cTnI) secretion	–
Cc1ccc(C(=O)Nc2ccc(S(=O)(=O)O)c3cc(S(=O)(=O)O)cc(S(=O)(=O)O)c23)cc1NC(=O)c1cccc(NC(=O)Nc2cccc(C(=O)Nc3cc(C(=O)Nc4ccc(S(=O)(=O)O)c5cc(S(=O)(=O)O)cc(S(=O)(=O)O)c45)ccc3C)c2)c1 [Suramin]	–	–	–	–	–	–	–	–	–	–	15 µM
